Test results: patent publication US12649726B2, “Substituted tetrahydroisoquinoline derivative as a D1 positive allosteric modulator” (UCB Biopharma SRL, priority 2020, dated 2026)
pEC50: −log10 of the molar value. Where “and” joins values, the source holds several entries; their conditions need not be identical. Equal entries are not always repeated.

Experiments:
Type in all cases: cell-based
[1] = molecular target: T1, human GABAA receptor α1,β2 and γ2 subunits (Homo sapiens, UniProt P14867+P18507+P47870); experiment: Automated patch clamp GABAA receptor inhibition assay (IonFlux HT); details: 10 μM compound, 15 μM GABA, CHO-K1 cells, holding potential −60 mV; read-out: percentage of inhibition of the GABAA receptor
T1 construct: expressed in transfected cells; host or cells: CHO-K1 cells
T1 sequence (P14867 28-456): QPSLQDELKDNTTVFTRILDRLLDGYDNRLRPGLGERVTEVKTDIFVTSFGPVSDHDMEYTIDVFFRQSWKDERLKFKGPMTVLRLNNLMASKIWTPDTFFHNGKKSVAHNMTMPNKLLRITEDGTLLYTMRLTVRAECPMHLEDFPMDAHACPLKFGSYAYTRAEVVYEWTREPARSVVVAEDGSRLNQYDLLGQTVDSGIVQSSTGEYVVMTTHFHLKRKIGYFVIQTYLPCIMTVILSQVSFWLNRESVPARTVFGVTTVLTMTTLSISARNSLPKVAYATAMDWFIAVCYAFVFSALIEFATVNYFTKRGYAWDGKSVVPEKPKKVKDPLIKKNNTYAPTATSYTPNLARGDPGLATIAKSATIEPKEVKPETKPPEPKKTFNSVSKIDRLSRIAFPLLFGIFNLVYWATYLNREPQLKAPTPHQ
T1 sequence (P47870 25-512 limits assumed): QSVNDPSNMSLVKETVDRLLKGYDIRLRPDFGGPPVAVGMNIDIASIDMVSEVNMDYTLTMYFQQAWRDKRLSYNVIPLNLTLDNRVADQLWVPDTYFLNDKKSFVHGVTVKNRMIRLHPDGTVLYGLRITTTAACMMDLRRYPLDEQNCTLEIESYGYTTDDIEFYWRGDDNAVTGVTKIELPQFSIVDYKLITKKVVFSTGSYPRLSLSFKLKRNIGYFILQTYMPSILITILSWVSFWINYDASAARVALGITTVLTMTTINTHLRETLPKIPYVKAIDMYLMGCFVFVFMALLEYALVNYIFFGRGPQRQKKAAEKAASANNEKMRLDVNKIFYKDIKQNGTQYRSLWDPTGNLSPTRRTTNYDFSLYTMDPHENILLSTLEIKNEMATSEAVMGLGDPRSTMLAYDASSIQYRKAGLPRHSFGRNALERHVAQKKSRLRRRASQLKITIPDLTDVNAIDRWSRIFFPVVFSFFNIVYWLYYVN
T1 sequence (P18507 40-475): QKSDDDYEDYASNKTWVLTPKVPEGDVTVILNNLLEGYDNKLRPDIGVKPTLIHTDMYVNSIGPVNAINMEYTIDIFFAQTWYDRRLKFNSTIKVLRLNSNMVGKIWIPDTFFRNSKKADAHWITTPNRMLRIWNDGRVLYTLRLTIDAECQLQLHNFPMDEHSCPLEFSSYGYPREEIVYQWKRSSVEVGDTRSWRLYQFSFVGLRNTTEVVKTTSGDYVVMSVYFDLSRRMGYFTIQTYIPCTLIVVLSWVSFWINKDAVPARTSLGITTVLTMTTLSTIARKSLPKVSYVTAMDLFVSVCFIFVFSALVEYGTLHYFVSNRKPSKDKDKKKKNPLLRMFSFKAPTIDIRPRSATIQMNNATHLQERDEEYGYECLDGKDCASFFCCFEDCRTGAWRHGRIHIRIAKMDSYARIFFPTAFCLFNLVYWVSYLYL
Protocol: CHO-K1 cells stably expressing human GABAA receptor α1,β2 and γ2 subunits were used. The cells were harvested using trypsin and maintained in serum-free medium at room temperature. The cells were washed and re-suspended in extracellular solution before testing.
Experiments on human GABAA (α1β2γ2) channels were conducted using an automated patch clamp assay (IonFlux™ HT). Compounds were tested at 3 concentrations (0.1, 1, and 10 μM) in 3 to 4 cells. The external solution for recording GABAA currents was composed of sodium chloride 137 mM, potassium chloride 4 mM, calcium chloride 1.8 mM, magnesium chloride 1 mM, HEPES 10 mM, and glucose 10 mM. Both external and internal solutions were titrated with NaOH or KOH to obtain a pH of 7.35 or 7.3, respectively. The internal pipette solution contained potassium fluoride 70 mM, potassium chloride 60 mM, sodium chloride 70 mM, HEPES 5 mM, EGTA 5 mM, and Magnesium ATP 4 mM. The final concentration of vehicle used to dilute compounds was 0.33% DMSO in each well. Bicuculline (0.032 to 100 μM) was used as positive control inhibitor. GABA (15 μM) was used as agonist. […]
The compound addition sequence was the following: one addition of the EC80 concentration of GABA was added to establish baseline response. […] Peak inward currents in response to the GABA additions in the presence of a single concentration of compound were measured. […]

[2] = molecular target: T2, dopamine D1 receptor (Homo sapiens, UniProt P21728); experiment: cAMP HTRF potentiation assay (presence of EC20 dopamine)
T2 construct: host or cells: LMtk (Ltk−) mouse fibroblast cells
T2 sequence (P21728 whole entry): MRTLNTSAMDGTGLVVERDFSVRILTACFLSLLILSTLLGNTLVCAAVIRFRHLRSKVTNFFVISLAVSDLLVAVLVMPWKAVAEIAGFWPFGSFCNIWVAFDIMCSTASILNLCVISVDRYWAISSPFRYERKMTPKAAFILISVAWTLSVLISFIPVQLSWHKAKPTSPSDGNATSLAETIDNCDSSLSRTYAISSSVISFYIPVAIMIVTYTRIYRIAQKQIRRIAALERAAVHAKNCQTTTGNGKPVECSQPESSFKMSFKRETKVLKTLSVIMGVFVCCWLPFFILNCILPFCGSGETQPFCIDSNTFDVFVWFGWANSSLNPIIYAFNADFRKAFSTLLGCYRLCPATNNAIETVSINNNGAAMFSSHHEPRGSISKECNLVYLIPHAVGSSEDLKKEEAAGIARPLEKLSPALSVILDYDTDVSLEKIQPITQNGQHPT
Text: (§1) Assays have been designed to measure the effects of compounds in accordance with the present invention in the absence of dopamine (“activation assay”) and in the presence of dopamine (“potentiation assay”).
The potentiation assay measures the ability of compounds to increase the levels of cAMP produced by a low-threshold concentration of dopamine. The concentration of dopamine used ([EC20]) is designed to produce 20% stimulation compared to the maximal response (100%) seen with increasing the concentration of dopamine. To measure this potentiation increasing concentrations of the compound with the [EC20] of dopamine are incubated and the potentiation is measured as increases in cAMP production and concentration of compound which produces 50% of the potentiation of the cAMP levels is measured.
(§2) Cells were cultured at 37° C. in a humidified atmosphere of 5% CO2. […]
(§3) The measurement of changes in intracellular cyclic adenosinemonophopshpate (cAMP) was determined using the HTRF cAMP dynamic assay kit from CisBio (Codolet, France). Using homogenous time-resolved fluorescence technology, the assay is based on competition between native cAMP produced by cells and cAMP labelled with the dye d2. The tracer binding is determined by an anti-cAMP antibody labeled with cryptate. […]

[3] = molecular target: T2, dopamine D1 receptor; experiment: cAMP HTRF activation assay (absence of dopamine); details: 10 μM compound, LMtk (Ltk−) cells expressing D1, read-out: activation (compared to dopamine maximal response)
Text: as §1
The activation assay measures the stimulation of the production of cyclic adenosinemonophosphate (cAMP) in the Homogeneous Time Resolved Fluorescent (HTRF) assay, with the maximum increase in cAMP by increasing concentrations of the endogenous agonist, dopamine, defined as 100% activation.
as §2
as §3, with “cryptate. The effects of the compound alone (agonism) was determined by performing the assay in the absence of dopamine, whilst the effect of the compound as a positive allosteric modulator (PAM) was determined in the presence of an EC20 concentration of dopamine.” for “cryptate.”

- inhibition at 10 µM [1]: < 0.1%
- Erel (relative efficacy, maximal % potentiation vs dopamine maximal response) ([2]; in presence of [EC20] dopamine (1.1 nM), dopamine maximum = 100%): about 62%
- pEC50 ([2]; potentiation of cAMP in presence of [EC20] dopamine (1.1 nM), LMtk (Ltk−) cells expressing D1): ~8.20 and > 7.50
- Emax at 10 µM [3]: < 20%
Compound: C[C@H]1c2cccc(C(C)(C)O)c2C[C@H](CO)N1C(=O)Cc1c(Cl)ccc2[nH]nc(Cl)c12 [compound of formula (I), 2-(3,5-dichloro-1H-indazol-4-yl)-1-[(1S,3R)-3-(hydroxymethyl)-5-(1-hydroxy-1-methyl-ethyl)-1-methyl-3,4-dihydro-1H-isoquinolin-2-yl]ethanone]
